Measurements reported in US20250320184A1 (SIRONAX LTD., priority 2022, published 2025).

Each compound was assayed against T1, SARM1 (50-724) (Homo sapiens, UniProt Q6SZW1) (assay: biochemical).
T1 sequence (Q6SZW1 50-724): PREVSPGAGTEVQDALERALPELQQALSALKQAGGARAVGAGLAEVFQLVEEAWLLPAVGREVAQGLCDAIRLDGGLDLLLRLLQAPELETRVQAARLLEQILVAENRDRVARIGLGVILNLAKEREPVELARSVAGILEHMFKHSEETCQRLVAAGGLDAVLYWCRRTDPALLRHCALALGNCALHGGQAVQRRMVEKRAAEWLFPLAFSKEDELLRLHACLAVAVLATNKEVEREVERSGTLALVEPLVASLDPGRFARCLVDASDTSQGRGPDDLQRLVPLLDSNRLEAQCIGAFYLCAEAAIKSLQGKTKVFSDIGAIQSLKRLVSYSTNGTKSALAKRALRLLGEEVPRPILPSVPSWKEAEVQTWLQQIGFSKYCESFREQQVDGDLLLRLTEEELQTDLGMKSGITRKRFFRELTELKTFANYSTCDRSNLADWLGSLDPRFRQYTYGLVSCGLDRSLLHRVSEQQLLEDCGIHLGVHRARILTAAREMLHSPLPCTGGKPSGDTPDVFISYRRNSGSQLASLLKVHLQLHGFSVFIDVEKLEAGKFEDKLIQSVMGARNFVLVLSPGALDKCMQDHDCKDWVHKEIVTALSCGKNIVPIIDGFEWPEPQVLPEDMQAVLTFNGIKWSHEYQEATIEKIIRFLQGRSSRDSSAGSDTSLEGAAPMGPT
Method: An enzymatic assay was performed in a 384-well plate using Dulbecco's phosphate-buffered saline (PBS) as the reaction buffer. […] The reaction was initiated by adding a mixture of 200 μM nicotinamide mononucleotide (NMN) as activator and 100 μM NAD^+ as substrate. After 1 h of incubation at room temperature, the reaction was terminated with 10 times volume of 70% acetonitrile, then centrifuged at 3800 rpm for 10 min.

IC50 | Structure (SMILES)
< 100 nM | Cc1cn[nH]c1-n1cnc2c(F)cc(NC(C)c3nc(Cl)c(Cl)s3)cc2c1=O (racemic) [Example 371, 6-((1-(4,5-dichlorothiazol-2-yl)ethyl)amino)-8-fluoro-3-(4-methyl-1H-pyrazol-5-yl)quinazolin-4(3H)-one]
> 1000 nM | CC[C@@H](C(N)=O)c1ccc(N[C@H](C)c2nc(Cl)c(Cl)s2)cc1 (single isomer, unassigned) [Compound 302B]
> 1000 nM | O=C1NCCc2ccc(NS(=O)(=O)c3cc(F)cc(Br)c3)cc21 [Compound 12, 3-bromo-5-fluoro-N-(1-oxo-1,2,3,4-tetrahydroisoquinolin-7-yl)benzenesulfonamide]
> 1000 nM | CC1CCN(S(=O)(=O)Nc2ccc3c(c2)C(=O)NCC3)CC1 [Example 164, 4-methyl-N-(1-oxo-1,2,3,4-tetrahydroisoquinolin-7-yl)piperidine-1-sulfonamide]
500 to 1000 nM | Cc1cccc(C)c1S(=O)(=O)Nc1ccc2c(c1)C(=O)NCC2 [Compound 18, 2,6-dimethyl-N-(1-oxo-1,2,3,4-tetrahydroisoquinolin-7-yl)benzenesulfonamide]
> 1000 nM | O=C1NCCc2ccc(NS(=O)(=O)c3ccccc3Cl)cc21 [Example 6A, 2-chloro-N-(1-oxo-1,2,3,4-tetrahydroisoquinolin-7-yl)benzenesulfonamide]
100 to 500 nM | CCC(Nc1ccc2c(c1)C(=O)NCC2)c1nccc(Cl)c1Cl (racemic) [Example 154, 7-((1-(3,4-dichloropyridin-2-yl)propyl)amino)-3,4-dihydroisoquinolin-1(2H)-one]
< 100 nM | CC(Nc1cc(F)c2ncn(C3CC(O)C3)c(=O)c2c1)c1nc(Cl)c(Cl)s1 (centres unmarked) [Compound 340, 6-((1-(4,5-dichlorothiazol-2-yl)ethyl)amino)-8-fluoro-3-(3-ydroxycyclobutyl)quinazolin-4(3H)-one]
< 100 nM | O=c1[nH]ccc2ccc(NS(=O)(=O)c3ccc(F)c(Cl)c3Cl)cc12 [Compound 69, 2,3-dichloro-4-fluoro-N-(1-oxo-1,2-dihydroisoquinolin-7-yl)benzenesulfonamide]
< 100 nM | O=S(=O)(Nc1ccc2c(F)n[nH]c2c1)c1cccc(Cl)c1Cl [Compound 75, 2,3-dichloro-N-(3-fluoro-1H-indazol-6-yl)benzenesulfonamide]
< 100 nM | CNC(=O)c1nn(C)c2ccc(NC(C)c3c(Cl)ccc(F)c3Cl)cc12 (racemic) [Compound 246, 5-((1-(2,6-dichloro-3-fluorophenyl)ethyl)amino)-N,1-dimethyl-1H-indazole-3-carboxamide]
< 100 nM | Cc1c2ccc(NC(C)c3snc(Cl)c3Cl)cc2nn1CC(N)=O (racemic) [Compound 341, 2-(6-((1-(3,4-dichloroisothiazol-5-yl)ethyl)amino)-3-methyl-2H-indazol-2-yl)acetamide]
< 100 nM | Cc1c2ccc(NC(C)c3nc(Cl)c(Cl)s3)cc2nn1C1CC(O)C1 (mixture of isomers) [Compound 339, 3-(6-((1-(4,5-dichlorothiazol-2-yl)ethyl)amino)-3-methyl-2H-indazol-2-yl)cyclobutan-1-ol]
100 to 500 nM | O=C1NCCc2ccc(NS(=O)(=O)N3CCCC4CCCC43)cc21 (mixture of isomers) [Example 171]
100 to 500 nM | O=S(=O)(Nc1cc(F)c2cn[nH]c2c1)c1cccc(Cl)c1Cl [Compound 74, 2,3-dichloro-N-(4-fluoro-1H-indazol-6-yl)benzenesulfonamide]
100 to 500 nM | O=C1NCCc2ccc(NS(=O)(=O)c3ccc(F)c(F)c3F)cc21 [Compound 36, 2,3,4-trifluoro-N-(1-oxo-1,2,3,4-tetrahydroisoquinolin-7-yl)benzenesulfonamide]

IC50 | Structure (SMILES)
< 100 nM | Cc1n[nH]c(=O)c2cc(NC(C)c3scc(Cl)c3Cl)ccc12 (racemic) [Compound 342, 7-((1-(3,4-dichlorothiophen-2-yl)ethyl)amino)-4-methylphthalazin-1(2H)-one]
< 100 nM | CC1(C)CN(C(=O)C2CC2)c2cc(NS(=O)(=O)c3cccc(Cl)c3Cl)ccc21 [Compound 243, 2,3-dichloro-N-(1-(cyclopropanecarbonyl)-3,3-dimethylindolin-6-yl)benzenesulfonamide]
> 1000 nM | CC(Nc1ccc2nccc(=O)n2c1)c1cccc(Cl)c1Cl (racemic) [Example 148, 7-((1-(2,3-dichlorophenyl)ethyl)amino)-4H-pyrido[1,2-a]pyrimidin-4-one]
100 to 500 nM | O=S(=O)(Nc1cc2ccccc2cn1)c1cccc(Cl)c1Cl [Compound 76, 2,3-dichloro-N-(isoquinolin-3-yl)benzenesulfonamide]
< 100 nM | Cc1c(Br)cccc1S(=O)(=O)Nc1ccc2c(c1)C(=O)NCCC2 [Compound 40, 3-bromo-2-methyl-N-(1-oxo-2,3,4,5-tetrahydro-1H-benzo[c]azepin-8-yl)benzenesulfonamide]
< 100 nM | Cc1n[nH]c(=O)c2cc(N[C@@H](C)c3c(Cl)ccc(F)c3Cl)ccc12 (single isomer, unassigned) [Example 237]
< 100 nM | Cc1nn(CC(N)=O)c(=O)c2nc(NC(C)c3nn(C)c(Cl)c3Cl)ccc12 (racemic) [Compound 330, 2-(2-((1-(4,5-dichloro-1-methyl-1H-pyrazol-3-yl)ethyl)amino)-5-methyl-8-oxopyrido[2,3-d]pyridazin-7(8H)-yl)acetamide]
< 100 nM | CC(Nc1ccc2nc[nH]c(=O)c2c1)c1cccc(Cl)c1Cl (single isomer, unassigned) [Example 152]
< 100 nM | O=C1NC(CO)CCc2ccc(NS(=O)(=O)c3cccc(Cl)c3Cl)cc21 (single isomer, unassigned) [Compound 304]
100 to 500 nM | Cc1cc(S(=O)(=O)Nc2ccc3c(c2)C(=O)NCC3)c(F)cc1F [Compound 30, 2,4-difluoro-5-methyl-N-(1-oxo-1,2,3,4-tetrahydroisoquinolin-7-yl)benzenesulfonamide]
< 100 nM | CC(Nc1ccc2c(C(F)F)n(CC(N)=O)nc2c1)c1nc(Cl)c(Cl)s1 (racemic) [Compound 355, 2-(6-((1-(4,5-dichlorothiazol-2-yl)ethyl)amino)-3-(difluoromethyl)-2H-indazol-2-yl)acetamide]
> 1000 nM | CC(Nc1ccc2ccccc2c1)c1cccc(Cl)c1Cl (centres unmarked) [Example 13A, N-(1-(2,3-dichlorophenyl)ethyl)naphthalen-2-amine]
< 100 nM | Cc1ccc(Cl)c(S(=O)(=O)Nc2ccc3cc[nH]c(=O)c3c2)c1Cl [Compound 37, 2,6-dichloro-3-methyl-N-(1-oxo-2H-isoquinolin-7-yl)benzenesulfonamide]
> 1000 nM | Cc1cc(F)cc(C(CO)Oc2ccc3c(c2)C(=O)NCC3)c1 (centres unmarked) [Example 176, 7-(1-(3-fluoro-5-methylphenyl)-2-hydroxyethoxy)-3,4-dihydroisoquinolin-1(2H)-one]
< 100 nM | CC(Nc1cc(F)c2nc[nH]c(=O)c2c1)c1nsc(Cl)c1Cl (racemic) [Compound 338, 6-((1-(4,5-dichloroisothiazol-3-yl)ethyl)amino)-8-fluoroquinazolin-4(3H)-one]
< 100 nM | CC1(C)CN(C(N)=O)c2cc(NS(=O)(=O)c3cccc(Cl)c3Cl)ccc21 [Compound 242, 6-((2,3-dichlorophenyl)sulfonamido)-3,3-dimethylindoline-1-carboxamide]
